Reference: PubChem BioAssay (NCI)
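These data come from cells grown in 96-well plates and exposed to compound for 48 hours at five concentrations. GI50 = concentration required for 50% inhibition of growth. TGI denotes the concentration required for complete inhibition of growth.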

Columns and labels:
Assay in all cases: inhibition of tumour cell growth, NCI panel, 48 h
A498 renal = system: A498 renal
ACHN renal = system: ACHN renal
CCRF-CEM leukemia = system: CCRF-CEM leukemia
COLO 205 colon = system: COLO 205 colon
DMS 114 small cell lung = system: DMS 114 small cell lung
HCC-2998 colon = system: HCC-2998 colon
HCT-116 colon = system: HCT-116 colon
HOP-62 NSCLC = system: HOP-62 NSCLC
HOP-92 NSCLC = system: HOP-92 NSCLC
HT29 colon = system: HT29 colon
IGROV1 ovarian = system: IGROV1 ovarian
K-562 leukemia = system: K-562 leukemia
KM12 colon = system: KM12 colon
LXFL 529 NSCLC = system: LXFL 529 NSCLC
M14 melanoma = system: M14 melanoma
M19-MEL melanoma = system: M19-MEL melanoma
MOLT-4 leukemia = system: MOLT-4 leukemia
NCI-H23 lung = system: NCI-H23 lung
NCI-H460 lung = system: NCI-H460 lung
NCI-H522 lung = system: NCI-H522 lung
OVCAR-3 ovarian = system: OVCAR-3 ovarian
OVCAR-4 ovarian = system: OVCAR-4 ovarian
RPMI-8226 leukemia = system: RPMI-8226 leukemia
RXF 393 renal = system: RXF 393 renal
SF-268 CNS = system: SF-268 CNS
SF-295 CNS = system: SF-295 CNS
SF-539 CNS = system: SF-539 CNS
SK-MEL-2 melanoma = system: SK-MEL-2 melanoma
SK-MEL-28 melanoma = system: SK-MEL-28 melanoma
SK-OV-3 ovarian = system: SK-OV-3 ovarian
SNB-19 CNS = system: SNB-19 CNS
SNB-75 CNS = system: SNB-75 CNS
SNB-78 CNS = system: SNB-78 CNS
SR leukemia = system: SR leukemia
UACC-257 melanoma = system: UACC-257 melanoma
UACC-62 melanoma = system: UACC-62 melanoma
UO-31 renal = system: UO-31 renal
786-0 renal = system: 786-0 renal
A549 NSCLC = system: A549 NSCLC
CAKI-1 renal = system: CAKI-1 renal
DLD-1 colon = system: DLD-1 colon
DMS 273 small cell lung = system: DMS 273 small cell lung
EKVX NSCLC = system: EKVX NSCLC
HCT-15 colon = system: HCT-15 colon
HL-60(TB) leukemia = system: HL-60(TB) leukemia
KM20L2 colon = system: KM20L2 colon
LOX IMVI melanoma = system: LOX IMVI melanoma
MALME-3M melanoma = system: MALME-3M melanoma
NCI-H226 lung = system: NCI-H226 lung
OVCAR-5 ovarian = system: OVCAR-5 ovarian
OVCAR-8 ovarian = system: OVCAR-8 ovarian
SK-MEL-5 melanoma = system: SK-MEL-5 melanoma
SN12C renal = system: SN12C renal
SW-620 colon = system: SW-620 colon
TK-10 renal = system: TK-10 renal
U251 CNS = system: U251 CNS

In the case of `COc1cc2ccc1NC(=O)N1CCN(CC1)C(=O)Nc1ccc(cc1OC)-c1ccc(c(OC)c1)NC(=O)N1CCN(CC1)C(=O)Nc1ccc-2cc1OC`, the TGI (A498 renal) is reported as > 100 µM, the TGI (ACHN renal) is reported as > 100 µM and the TGI (CCRF-CEM leukemia) is reported as > 100 µM. The TGI (COLO 205 colon) was > 100 µM, the TGI (DMS 114 small cell lung) was > 100 µM and the TGI (HCC-2998 colon) was > 100 µM. For the same compound, the TGI (HCT-116 colon) was > 100 µM, the TGI (HOP-62 NSCLC) was > 100 µM and the TGI (HOP-92 NSCLC) was > 100 µM. The TGI (HT29 colon) was > 100 µM, the TGI (IGROV1 ovarian) was > 100 µM and the TGI (K-562 leukemia) was > 100 µM. The TGI (KM12 colon) was > 100 µM, the TGI (LXFL 529 NSCLC) was > 100 µM and the TGI (M14 melanoma) was > 100 µM. For the same compound, the TGI (M19-MEL melanoma) was > 100 µM, the TGI (MOLT-4 leukemia) was > 100 µM and the TGI (NCI-H23 lung) was > 100 µM. For the same compound, the TGI (NCI-H460 lung) was > 100 µM, the TGI (NCI-H522 lung) was > 100 µM and the TGI (OVCAR-3 ovarian) was > 100 µM. The TGI (OVCAR-4 ovarian) was > 100 µM, the TGI (RPMI-8226 leukemia) was > 100 µM and the TGI (RXF 393 renal) was > 100 µM. For the same compound, the TGI (SF-268 CNS) was > 100 µM, the TGI (SF-295 CNS) was > 100 µM and the TGI (SF-539 CNS) was > 100 µM. For the same compound, the TGI (SK-MEL-2 melanoma) was > 100 µM, the TGI (SK-MEL-28 melanoma) was > 100 µM and the TGI (SK-OV-3 ovarian) was > 100 µM. The TGI (SNB-19 CNS) was > 100 µM, the TGI (SNB-75 CNS) was > 100 µM and the TGI (SNB-78 CNS) was > 100 µM. The TGI (SR leukemia) was > 100 µM, the TGI (UACC-257 melanoma) was > 100 µM and the TGI (UACC-62 melanoma) was > 100 µM. For the same compound, the TGI (UO-31 renal) was > 100 µM.
For `[Cl-].[Nd+3].[O-]/N=C(\c1ccccc1)c1ccccn1.[O-]/N=C(\c1ccccc1)c1ccccn1.[O-]/N=C(\c1ccccc1)c1ccccn1`, the GI50 (786-0 renal) was 31 µM, the TGI (786-0 renal) was 82.2 µM and the GI50 (A498 renal) was 24.5 µM. For the same compound, the TGI (A498 renal) was > 100 µM, the GI50 (A549 NSCLC) was 33.7 µM and the TGI (A549 NSCLC) was > 100 µM. The GI50 (ACHN renal) was 37.8 µM, the TGI (ACHN renal) was > 100 µM and the GI50 (CAKI-1 renal) was 30.6 µM. The TGI (CAKI-1 renal) was > 100 µM, the GI50 (CCRF-CEM leukemia) was 16.4 µM and the TGI (CCRF-CEM leukemia) was 95.3 µM. The GI50 (COLO 205 colon) was 31.2 µM, the TGI (COLO 205 colon) was > 100 µM and the GI50 (DLD-1 colon) was 39.6 µM. The TGI (DLD-1 colon) was > 100 µM, the GI50 (DMS 114 small cell lung) was 24.6 µM and the TGI (DMS 114 small cell lung) was 79 µM. The GI50 (DMS 273 small cell lung) was 26.9 µM, the TGI (DMS 273 small cell lung) was 97 µM and the GI50 (EKVX NSCLC) was 31.1 µM. The TGI (EKVX NSCLC) was > 100 µM, the GI50 (HCC-2998 colon) was 36.3 µM and the TGI (HCC-2998 colon) was > 100 µM. For the same compound, the GI50 (HCT-116 colon) was 37.6 µM, the TGI (HCT-116 colon) was > 100 µM and the GI50 (HCT-15 colon) was 31.7 µM. For the same compound, the TGI (HCT-15 colon) was > 100 µM, the GI50 (HL-60(TB) leukemia) was 16.5 µM and the TGI (HL-60(TB) leukemia) was 53.6 µM. For the same compound, the GI50 (HOP-62 NSCLC) was 24.9 µM, the TGI (HOP-62 NSCLC) was > 100 µM and the GI50 (HOP-92 NSCLC) was 25 µM. The TGI (HOP-92 NSCLC) was 98.3 µM, the GI50 (HT29 colon) was 54.2 µM and the TGI (HT29 colon) was > 100 µM. For the same compound, the GI50 (IGROV1 ovarian) was 30.6 µM, the TGI (IGROV1 ovarian) was > 100 µM and the GI50 (K-562 leukemia) was 34.4 µM. The TGI (K-562 leukemia) was > 100 µM, the GI50 (KM12 colon) was 38.8 µM and the TGI (KM12 colon) was > 100 µM. For the same compound, the GI50 (KM20L2 colon) was 39.1 µM, the TGI (KM20L2 colon) was > 100 µM and the GI50 (LOX IMVI melanoma) was 22.6 µM. The TGI (LOX IMVI melanoma) was 58 µM, the GI50 (LXFL 529 NSCLC) was 40.4 µM and the TGI (LXFL 529 NSCLC) was > 100 µM. The GI50 (M14 melanoma) was 23 µM, the TGI (M14 melanoma) was 45.8 µM and the GI50 (M19-MEL melanoma) was 25 µM. The TGI (M19-MEL melanoma) was 69.8 µM, the GI50 (MALME-3M melanoma) was 30 µM and the TGI (MALME-3M melanoma) was 96.9 µM. It also gave a GI50 (MOLT-4 leukemia) of 23.8 µM, a TGI (MOLT-4 leukemia) of 90.2 µM and a GI50 (NCI-H226 lung) of 13.3 µM. For the same compound, the TGI (NCI-H226 lung) was 45.6 µM, the GI50 (NCI-H23 lung) was 30.3 µM and the TGI (NCI-H23 lung) was 82.7 µM. For the same compound, the GI50 (NCI-H460 lung) was 29.4 µM, the TGI (NCI-H460 lung) was > 100 µM and the GI50 (NCI-H522 lung) was 23 µM. For the same compound, the TGI (NCI-H522 lung) was 80.1 µM, the GI50 (OVCAR-3 ovarian) was 17.5 µM and the TGI (OVCAR-3 ovarian) was > 100 µM. The GI50 (OVCAR-4 ovarian) was 45.1 µM, the TGI (OVCAR-4 ovarian) was > 100 µM and the GI50 (OVCAR-5 ovarian) was 31.2 µM. The TGI (OVCAR-5 ovarian) was > 100 µM, the GI50 (OVCAR-8 ovarian) was 34.1 µM and the TGI (OVCAR-8 ovarian) was > 100 µM. The GI50 (RPMI-8226 leukemia) was 39.2 µM, the TGI (RPMI-8226 leukemia) was > 100 µM and the GI50 (SF-268 CNS) was 24.8 µM. The TGI (SF-268 CNS) was 85.1 µM, the GI50 (SF-295 CNS) was 22.3 µM and the TGI (SF-295 CNS) was > 100 µM. For the same compound, the GI50 (SF-539 CNS) was 23.8 µM, the TGI (SF-539 CNS) was 62.2 µM and the GI50 (SK-MEL-2 melanoma) was 28 µM. For the same compound, the TGI (SK-MEL-2 melanoma) was 66.4 µM, the GI50 (SK-MEL-28 melanoma) was 27.3 µM and the TGI (SK-MEL-28 melanoma) was 85.1 µM. It also gave a GI50 (SK-MEL-5 melanoma) of 22.6 µM, a TGI (SK-MEL-5 melanoma) of 55.4 µM and a GI50 (SK-OV-3 ovarian) of 37.1 µM. The TGI (SK-OV-3 ovarian) was > 100 µM, the GI50 (SN12C renal) was 37.2 µM and the TGI (SN12C renal) was > 100 µM. The GI50 (SNB-19 CNS) was 35.9 µM, the TGI (SNB-19 CNS) was > 100 µM and the GI50 (SNB-75 CNS) was 3.78 µM. For the same compound, the TGI (SNB-75 CNS) was 17.2 µM, the GI50 (SW-620 colon) was 41.1 µM and the TGI (SW-620 colon) was > 100 µM. For the same compound, the GI50 (TK-10 renal) was 37.5 µM, the TGI (TK-10 renal) was > 100 µM and the GI50 (U251 CNS) was 38.9 µM. The TGI (U251 CNS) was > 100 µM, the GI50 (UACC-257 melanoma) was 33.6 µM and the TGI (UACC-257 melanoma) was 99.3 µM. For the same compound, the GI50 (UACC-62 melanoma) was 28.7 µM, the TGI (UACC-62 melanoma) was > 100 µM and the GI50 (UO-31 renal) was 19.8 µM. The TGI (UO-31 renal) was 56.7 µM.
